From PubChem BioAssay AID977605 (Broad Institute, 2014)
Activity calls are given as the source filed them.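 The calls were made as follows: active = fitted curve reaches 40% activation below the top valid tested dose, in every test run; inconclusive = test runs disagree on the call; inactive = the rest, including effects opposite to the expected direction.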

Assay: endothelial E-selectin upregulation by compounds – imaging, HUVEC, cherry-picked samples, dose response (AID 977605);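 also: signal is the share of imaged cells scored positive for E-selectin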
Details: HUVEC E-selectin immunostaining, at 18 µM (top of the series), percent of TNF-alpha response over vehicle

Row | SMILES | activation
1 | CCC(=O)N1CC[C@@H]2[C@H](CO)Nc3ccc(C#Cc4ccc(F)cc4)cc3[C@@H]21 | 27.2% (inactive)

Same assay, conditions: HUVEC E-selectin immunostaining, at 19.5 µM (top of the series), percent of TNF-alpha response over vehicle

Row | SMILES | activation
2 | Cc1ccc(S(=O)(=O)Nc2ccc3c(c2)C(=O)N([C@H](C)CO)C[C@@H](C)[C@H](CN(C)Cc2ccc(-c4ccccc4)cc2)O3)cc1 | -0.157% (inactive)
3 | O=C(Cc1ccc(-n2c(=O)c3sccc3n(Cc3ccc(F)cc3)c2=O)cc1)NCc1ccco1 | 0.008% (inactive)
4 | C[C@@H]1CN([C@H](C)CO)C(=O)c2cc(NC(=O)Nc3ccc4c(c3)OCO4)ccc2O[C@H]1CN(C)S(=O)(=O)c1ccc(F)cc1 | -0.11% (inactive)
5 | CC(=O)c1ccc(N(C(=O)CNC(=O)c2ccco2)C(C(=O)NC2CCCC2)c2ccc(C)o2)cc1 (stereo not drawn) | -0.024% (inactive)
6 | COc1ccccc1NS(=O)(=O)c1c(C)[nH]c(C)c1C(=O)N1CCCC1 | 13.9% (inactive)
7 | Cc1cc(C(=O)Nc2cccc3c2O[C@@H](CN(C)S(=O)(=O)c2ccc(F)cc2)[C@@H](C)CN([C@H](C)CO)C3=O)n(C)n1 | 0.077% (inactive)
8 | CC1CC(=O)Nc2ccccc2N1S(=O)(=O)c1cccs1 (stereo not drawn) | -0.177% (inactive)
9 | C[C@@H]1CN([C@H](C)CO)C(=O)c2cc(N(C)C)ccc2O[C@@H]1CN(C)C(=O)Nc1ccc2c(c1)OCO2 | 0.018% (inactive)
10 | C[C@@H]1CN([C@H](C)CO)C(=O)c2cc(C3=CCCC3)cnc2O[C@@H]1CN(C)C(=O)Nc1ccccc1 | 0.119% (inactive)
11 | COC(=O)CCCn1cc(CN2CC(N3CCN(Cc4ccccc4F)CC3)CS2(=O)=O)nn1 (stereo not drawn) | -0.246% (inactive)
12 | C[C@H](CO)N1C[C@H](C)[C@H](CN(C)Cc2ccc(C(F)(F)F)cc2)Oc2ccc(NC(=O)Cc3cn(C)c4ccccc34)cc2CC1=O | 0.156% (inactive)
13 | CCOC(=O)[C@]12CCCC=C1N(Cc1ccccc1)C(=O)[C@H](CC(=O)NCc1cccc3ccccc13)C2 | 0.13% (inactive)
14 | C[C@@H]1CN([C@H](C)CO)C(=O)Cc2cc(NC(=O)CCCCCC(=O)Nc3ccccc3N)ccc2O[C@H]1CN(C)C(=O)Nc1ccc2c(c1)OCO2 | -0.123% (inactive)
15 | C[C@@H]1CN([C@H](C)CO)C(=O)Cc2cc(NS(C)(=O)=O)ccc2O[C@@H]1CN(C)S(=O)(=O)c1cn(C)cn1 | 13.4% (inactive)
16 | Cc1noc(C)c1NC(=O)N(C)C[C@@H]1Oc2ccc(NC(=O)Cn3cnnn3)cc2C(=O)N([C@@H](C)CO)C[C@@H]1C | -0.143% (inactive)
17 | C[C@@H]1CN([C@@H](C)CO)C(=O)c2cc(NC(=O)Cn3cnnn3)ccc2O[C@@H]1CN(C)Cc1ccc(Oc2ccccc2)cc1 | -0.116% (inactive)
18 | C[C@@H]1CN([C@@H](C)CO)C(=O)Cc2cc(NC(=O)Cn3cnnn3)ccc2O[C@H]1CN(C)Cc1ccc(Oc2ccccc2)cc1 | 0.416% (inactive)
19 | C[C@H]1CN([C@@H](C)CO)C(=O)c2cccc(NS(C)(=O)=O)c2O[C@H]1CN(C)S(C)(=O)=O | 0.973% (inactive)
20 | C[C@H](CO)N1C[C@H](C)[C@H](CN(C)C(=O)c2ccc3c(c2)OCO3)Oc2cc(-c3ccccc3)ccc2S1(=O)=O | -0.242% (inactive)
21 | COc1ccc(Nc2n[nH]c(N)c2C(N)=O)cc1 | -0.163% (inactive)

Row | SMILES | activation
22 | C[C@H]1CN([C@@H](C)CO)C(=O)c2cc(Br)cnc2O[C@H]1CN(C)Cc1cccc(F)c1 | -0.038% (inactive)
23 | CCCC#Cc1ccc2c(c1)O[C@H](CN(C)C(C)=O)[C@H](C)CN([C@@H](C)CO)S2(=O)=O | 0.607% (inactive)
24 | CC(C)NC(=O)Nc1cccc2c1O[C@H](CN(C)Cc1ccc(Cl)c(Cl)c1)[C@@H](C)CN([C@@H](C)CO)C2=O | 0.01% (inactive)
25 | C[C@@H]1CN([C@@H](C)CO)C(=O)c2cccc(NC(=O)c3ccc(-c4nccs4)cc3)c2O[C@@H]1CN(C)Cc1ccc(Cl)c(Cl)c1 | 0.039% (inactive)
26 | Cc1noc(C)c1S(=O)(=O)Nc1ccc2c(c1)C(=O)N([C@@H](C)CO)C[C@@H](C)[C@@H](CN(C)Cc1ccc3c(c1)OCO3)O2 | -0.115% (inactive)
27 | C[C@@H]1CN([C@H](C)CO)C(=O)c2cccc(NC(=O)CCCCCC(=O)Nc3ccccc3N)c2O[C@H]1CN(C)C | 0.064% (inactive)
28 | Cc1ccc(C(=O)NNC(=O)CSc2nnc(CNc3ccc(F)cc3)n2C)cc1 | -0.046% (inactive)
29 | CC(C)NC(=O)Nc1ccc2c(c1)CC(=O)N([C@H](C)CO)C[C@@H](C)[C@H](CN(C)Cc1ccc(Oc3ccccc3)cc1)O2 | -0.138% (inactive)
30 | CC1CCCC(C)N1C(=O)CSc1nc2c(c(=O)n(C)c(=O)n2C)n1C (stereo not drawn) | -0.005% (inactive)
31 | CCOC(=O)c1ccc(N(C(=O)c2ccco2)C(C(=O)NC2CCCCC2)c2ccncc2)cc1 (stereo not drawn) | -0.129% (inactive)
32 | Cc1[nH]c(C)c(S(=O)(=O)N2CCCCC2)c1C(=O)N1CCCC1 | -0.044% (inactive)
33 | C[C@H]1CN([C@@H](C)CO)C(=O)c2cc(NC(=O)Nc3ccc(F)cc3)ccc2O[C@H]1CN(C)S(C)(=O)=O | 4.69% (inactive)
34 | COc1ccc(S(=O)(=O)N(C)C[C@@H]2Oc3c(NS(=O)(=O)c4ccc(F)cc4)cccc3C(=O)N([C@H](C)CO)C[C@@H]2C)cc1 | -0.15% (inactive)
35 | CC(=O)Nc1ccc(S(=O)(=O)NNc2cccc(C)c2)cc1 | 0.281% (inactive)
36 | C[C@@H]1CN([C@@H](C)CO)C(=O)Cc2cc(NC(=O)Nc3ccc(F)cc3)ccc2O[C@@H]1CN(C)Cc1ccc(C(=O)O)cc1 | -0.134% (inactive)
37 | Cc1noc(C)c1NC(=O)N(C)C[C@@H]1Oc2ccc(NC(=O)c3ccncc3)cc2C(=O)N([C@H](C)CO)C[C@H]1C | -0.047% (inactive)
38 | C[C@H](CO)N1C[C@H](C)[C@@H](CN(C)S(C)(=O)=O)Oc2ccc(NC(=O)CCCCCC(=O)Nc3ccccc3N)cc2CC1=O | 0.149% (inactive)
39 | Cc1ccccc1CN1CCN(S(=O)(=O)c2ccc(Cl)s2)CC1 | 0.152% (inactive)
40 | C[C@@H]1CN([C@H](C)CO)C(=O)c2cc(NS(=O)(=O)c3cccs3)ccc2O[C@H]1CN(C)S(C)(=O)=O | -0.143% (inactive)
41 | C[C@@H]1CN([C@@H](C)CO)C(=O)Cc2cc(NC(=O)Nc3ccc(F)cc3)ccc2O[C@@H]1CN(C)S(=O)(=O)c1cn(C)cn1 | -0.041% (inactive)

Row | SMILES | activation
42 | CCCCNC(=O)N1c2ccccc2CC1C (stereo not drawn) | 0.083% (inactive)
43 | C[C@@H]1CN([C@@H](C)CO)C(=O)c2cc(NC(=O)Nc3ccc(F)cc3)ccc2O[C@@H]1CN(C)S(=O)(=O)c1cccs1 | -0.142% (inactive)
44 | C[C@@H]1CN([C@@H](C)CO)C(=O)c2cc(NC(=O)Cc3ccccc3)ccc2O[C@@H]1CN(C)C(=O)Nc1cccc2ccccc12 | -0.101% (inactive)
45 | C[C@@H]1CN([C@@H](C)CO)S(=O)(=O)c2ccc(C#Cc3ccccc3)cc2O[C@@H]1CN(C)CC1CC1 | 0.541% (inactive)
46 | C[C@H](CO)N1C[C@H](C)[C@H](CN(C)Cc2ccc(C(F)(F)F)cc2)Oc2ccc(N(C)C)cc2CC1=O | 0.692% (inactive)
47 | CC(C)NC(=O)Nc1ccc2c(c1)CC(=O)N([C@H](C)CO)C[C@H](C)[C@@H](CN(C)Cc1ccc(Oc3ccccc3)cc1)O2 | -0.055% (inactive)
48 | O=C(NCc1ccccc1)C1CCCN(S(=O)(=O)c2ccc(-n3cnnn3)cc2)C1 (stereo not drawn) | 1.85% (inactive)
49 | C[C@@H]1CN([C@@H](C)CO)C(=O)Cc2cc(NC(=O)c3ccncc3)ccc2O[C@@H]1CN(C)C(=O)Nc1ccc(C(F)(F)F)cc1 | -0.044% (inactive)
50 | CCCC#Cc1ccc2c(c1)O[C@@H](CN(C)S(=O)(=O)c1cccc(OC)c1)[C@@H](C)CN([C@@H](C)CO)S2(=O)=O | 0.13% (inactive)
51 | N#Cc1cccnc1N1CCC(C(N)=O)CC1 | 0.067% (inactive)
52 | COc1ccc(S(=O)(=O)NCC(=O)NCc2cc(=O)n(C)c(=O)n2C)cc1F | 0.047% (inactive)
53 | C[C@@H]1CN([C@@H](C)CO)C(=O)c2cc(C#CC3CC3)cnc2O[C@@H]1CN(C)C(=O)c1ccccc1 | -0.295% (inactive)
54 | CCOc1ccc(C(=O)N2CCN(S(=O)(=O)c3cccs3)CC2)c(OCC)c1 | -0.235% (inactive)
55 | COc1ccc(NC(=O)Nc2cccc3c2O[C@@H](CN(C)C(=O)NC2CCCCC2)[C@@H](C)CN([C@H](C)CO)C3=O)cc1 | 0.334% (inactive)
56 | C[C@@H]1CN([C@H](C)CO)C(=O)Cc2cc(NC(=O)Cn3cnnn3)ccc2O[C@H]1CN(C)C(=O)Nc1ccc(C(F)(F)F)cc1 | 0.232% (inactive)
57 | COc1cccc(CCC(=O)N2CCC(n3nccc3NC(=O)CC(C)C)CC2)c1 | -0.002% (inactive)
58 | C[C@H](CO)N1C[C@H](C)[C@H](CN(C)CC2CC2)Oc2c(NC(=O)C3CC3)cccc2C1=O | -0.037% (inactive)
59 | C[C@H]1CN([C@@H](C)CO)C(=O)c2cc(C#Cc3cccc(F)c3)cnc2O[C@@H]1CN(C)C(=O)C1CC1 | -0.134% (inactive)

Same assay, conditions: HUVEC E-selectin immunostaining, at 21 µM (top of the series), percent of TNF-alpha response over vehicle

Row | SMILES | activation
60 | C[C@@H]1CN([C@H](C)CO)S(=O)(=O)c2ccc(-c3ccncc3)cc2O[C@H]1CN(C)Cc1ccc(Oc2ccccc2)cc1 | 23.2% (inactive)
61 | Cc1noc(C)c1NC(=O)Nc1cccc2c1O[C@@H](CN(C)CC1CCCCC1)[C@H](C)CN([C@@H](C)CO)C2=O | -0.074% (inactive)
62 | CNC[C@@H]1Oc2c(NC(=O)Nc3ccc(F)cc3)cccc2C(=O)N([C@H](C)CO)C[C@H]1C | -0.191% (inactive)
63 | COc1ccc(CN(C)C[C@@H]2Oc3c(NC(=O)c4cnccn4)cccc3C(=O)N([C@@H](C)CO)C[C@H]2C)cc1 | -0.033% (inactive)
64 | CC(C)NC(=O)N(C)C[C@H]1Oc2ccc(NC(=O)CCC(F)(F)F)cc2CC(=O)N([C@@H](C)CO)C[C@@H]1C | -0.117% (inactive)
65 | C[C@H]1CN([C@@H](C)CO)C(=O)c2cc(NC(=O)Cn3cnnn3)ccc2O[C@H]1CN(C)Cc1ccc(Oc2ccccc2)cc1 | 0.004% (inactive)
66 | C[C@@H]1CN([C@@H](C)CO)C(=O)Cc2cc(NS(=O)(=O)c3ccc(F)cc3)ccc2O[C@@H]1CN(C)S(=O)(=O)c1ccc(Cl)cc1 | -0.065% (inactive)
67 | C[C@H](CO)N1C[C@H](C)[C@H](CN(C)C(=O)Nc2ccc3c(c2)OCO3)Oc2c(NS(=O)(=O)c3ccc(Cl)cc3)cccc2C1=O | -0.135% (inactive)
68 | C[C@H](CO)N1C[C@H](C)[C@H](CN(C)C)Oc2ccc(NC(=O)Nc3ccccc3)cc2CC1=O | -0.138% (inactive)
